From the NIST ThermoML archive (doi:10.1021/je500804j)

Test: mn = molality of the nth substance listed, in mol/kg
Conditions: 101 kPa, Liquid, Alternating current cell with electrodes

CCCCCCCC[N+](C)(C)CCCCCC[N+](C)(C)CCCCCCCC.[Br-].[Br-] + O
Conditions	electrical conductivity [S/m]
293.15 K, m1 = 0.1245	0.9968
298.15 K, m1 = 0.00419	0.07905
298.15 K, m1 = 0.00827	0.1464
298.15 K, m1 = 0.01224	0.2076
298.15 K, m1 = 0.0161	0.2647
298.15 K, m1 = 0.01987	0.3161
298.15 K, m1 = 0.02353	0.3644
298.15 K, m1 = 0.02711	0.4098
298.15 K, m1 = 0.03059	0.4515
298.15 K, m1 = 0.03399	0.4914
298.15 K, m1 = 0.0373	0.5292
298.15 K, m1 = 0.04053	0.5645
298.15 K, m1 = 0.04369	0.5979
298.15 K, m1 = 0.04677	0.6299
298.15 K, m1 = 0.04978	0.6602
298.15 K, m1 = 0.05272	0.6887
298.15 K, m1 = 0.05559	0.7156
298.15 K, m1 = 0.0584	0.7419
298.15 K, m1 = 0.06114	0.7666
298.15 K, m1 = 0.06383	0.7898
298.15 K, m1 = 0.06645	0.812
298.15 K, m1 = 0.06902	0.833
298.15 K, m1 = 0.07154	0.8526
298.15 K, m1 = 0.074	0.8713
298.15 K, m1 = 0.07641	0.8887
298.15 K, m1 = 0.07877	0.9051
298.15 K, m1 = 0.08108	0.9203
298.15 K, m1 = 0.08334	0.9348
298.15 K, m1 = 0.08556	0.9485
298.15 K, m1 = 0.08773	0.9616
298.15 K, m1 = 0.08987	0.9739
298.15 K, m1 = 0.09196	0.9852
298.15 K, m1 = 0.09401	0.9959
298.15 K, m1 = 0.09602	1.006
298.15 K, m1 = 0.09799	1.016
298.15 K, m1 = 0.09992	1.025
298.15 K, m1 = 0.1018	1.033
298.15 K, m1 = 0.1037	1.042
298.15 K, m1 = 0.1055	1.05
298.15 K, m1 = 0.1073	1.058
298.15 K, m1 = 0.1091	1.066
298.15 K, m1 = 0.1108	1.073
298.15 K, m1 = 0.1125	1.08
298.15 K, m1 = 0.1142	1.087
298.15 K, m1 = 0.1158	1.094
298.15 K, m1 = 0.1174	1.1
298.15 K, m1 = 0.119	1.107
298.15 K, m1 = 0.1206	1.112
298.15 K, m1 = 0.1221	1.118
298.15 K, m1 = 0.1236	1.124
298.15 K, m1 = 0.1251	1.13
303.15 K, m1 = 0.00379	0.0878
303.15 K, m1 = 0.00748	0.1271
303.15 K, m1 = 0.01108	0.1968
303.15 K, m1 = 0.01459	0.2594
303.15 K, m1 = 0.01801	0.3174
303.15 K, m1 = 0.02135	0.3714
303.15 K, m1 = 0.02461	0.4209
303.15 K, m1 = 0.02779	0.4681
303.15 K, m1 = 0.0309	0.5124
303.15 K, m1 = 0.03394	0.5542
303.15 K, m1 = 0.03691	0.5939
303.15 K, m1 = 0.03981	0.6314
303.15 K, m1 = 0.04264	0.6668
303.15 K, m1 = 0.04542	0.7005
303.15 K, m1 = 0.04813	0.7326
303.15 K, m1 = 0.05078	0.7638
303.15 K, m1 = 0.05338	0.7917
303.15 K, m1 = 0.05592	0.8194
303.15 K, m1 = 0.05841	0.8457
303.15 K, m1 = 0.06085	0.8704
303.15 K, m1 = 0.06324	0.8926
303.15 K, m1 = 0.06558	0.9126
303.15 K, m1 = 0.06787	0.9342
303.15 K, m1 = 0.07011	0.9547
303.15 K, m1 = 0.07232	0.9738
303.15 K, m1 = 0.07448	0.9921
303.15 K, m1 = 0.07659	1.01
303.15 K, m1 = 0.07867	1.026
303.15 K, m1 = 0.08071	1.04
303.15 K, m1 = 0.08271	1.055
303.15 K, m1 = 0.08467	1.069
303.15 K, m1 = 0.0866	1.082
303.15 K, m1 = 0.08849	1.094
303.15 K, m1 = 0.09034	1.107
303.15 K, m1 = 0.09217	1.118
303.15 K, m1 = 0.09396	1.129
303.15 K, m1 = 0.09572	1.139
303.15 K, m1 = 0.09745	1.148
303.15 K, m1 = 0.09915	1.158
303.15 K, m1 = 0.1008	1.168
303.15 K, m1 = 0.1025	1.175
303.15 K, m1 = 0.1041	1.183
303.15 K, m1 = 0.1057	1.191
303.15 K, m1 = 0.1072	1.198
303.15 K, m1 = 0.1087	1.206
303.15 K, m1 = 0.1103	1.215
303.15 K, m1 = 0.1118	1.22
303.15 K, m1 = 0.1132	1.228
